Results published in patent US11084821B2 (MISSION THERAPEUTICS LIMITED, priority 2016, dated 2021).
pIC50: −log10 of the molar value.

target: USP30 (Homo sapiens (Human), UniProt Q70CQ3); assay: USP30 Biochemical IC50 Assay; settings: fluorescence polarisation, TAMRA labelled peptide linked to ubiquitin; enzyme and compound incubated 30 min; read after 2 h at room temperature; read-out: IC50 range
Experimental: USP30 Biochemical IC50 Assay
Dilution plates were prepared at 21 times the final concentration (2100 μM for a final concentration of 100 μM) in 50% DMSO in a 96-well polypropylene V-bottom plate (Greiner #651201). A typical 8-point dilution series would be 100, 30, 10, 3, 1, 0.3, 0.1, 0.03 μM final. Reactions were performed in duplicate in black 384 well plates (small volume, Greiner 784076) in a final reaction volume of 21 μl. Either 1 μl of 50% DMSO or diluted compound was added to the plate. USP30 was diluted in reaction buffer (40 mM Tris, pH 7.5, 0.005% Tween 20, 0.5 mg/ml BSA, 5 mM beta-mercaptoethanol) to the equivalent of 0.05 μl/well and 10 μl of diluted USP30 was added to the compound. Enzyme and compound were incubated for 30 min at room temp. Reactions were initiated by the addition of 50 nM of TAMRA labelled peptide linked to ubiquitin via an iso-peptide bond as fluorescence polarisation substrate. Reactions were read immediately after addition of substrate and following a 2 h incubation at room temperature. Readings were performed on a Pherastar Plus (BMG Labtech). Excitation 540 nm; Emission 590 nm.

USP30, sequence (Q70CQ3 57-517): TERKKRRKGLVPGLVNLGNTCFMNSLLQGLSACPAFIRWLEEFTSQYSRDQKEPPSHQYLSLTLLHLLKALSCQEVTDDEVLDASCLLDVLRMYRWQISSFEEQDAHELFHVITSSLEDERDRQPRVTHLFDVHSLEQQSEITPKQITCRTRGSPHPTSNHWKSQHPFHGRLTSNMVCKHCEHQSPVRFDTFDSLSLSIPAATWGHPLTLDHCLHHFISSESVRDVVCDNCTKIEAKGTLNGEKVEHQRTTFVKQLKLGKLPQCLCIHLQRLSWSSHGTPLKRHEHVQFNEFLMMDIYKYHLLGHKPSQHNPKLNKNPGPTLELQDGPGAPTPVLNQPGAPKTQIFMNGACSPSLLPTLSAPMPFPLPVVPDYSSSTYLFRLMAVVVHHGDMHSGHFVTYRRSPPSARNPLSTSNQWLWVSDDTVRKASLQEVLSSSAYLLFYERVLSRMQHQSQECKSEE

SMILES | pIC50
N#Cc1cccc(-c2cccnc2N2CCO[C@H]3CN(C#N)C[C@H]32)c1 (racemic) [Example 23, rac-(4aR,7aS)-4-(5-(3-Cyanophenyl)pyridin-6-yl)hexahydropyrrolo[3,4-b][1,4]oxazine-6(2H)-carbonitrile] | 8.00 to 9.00
N#Cc1cccc(-c2cnc(N3CCO[C@@H]4CN(C#N)C[C@@H]43)nc2)c1 (racemic) [Example 24, rac-(4aR,7aS)-4-(5-(3-Cyanophenyl)pyrimidin-2-yl)hexahydropyrrolo[3,4-b][1,4]oxazine-6(2H)-carbonitrile] | 8.00 to 9.00
N#Cc1cccc(-c2cnc(N3CCO[C@@H]4CN(C#N)C[C@@H]43)cn2)c1 (racemic) [Example 25, rac-(4aR,7aS)-4-(5-(3-Cyanophenyl)pyrazin-2-yl)hexahydropyrrolo[3,4-b][1,4]oxazine-6(2H)-carbonitrile] | 8.00 to 9.00
N#Cc1ccnc(-c2ccc(N3CCO[C@@H]4CN(C#N)C[C@@H]43)nc2)c1 (racemic) [Example 26, rac-(4aR,7aS)-4-(4-Cyano-[2,3′-bipyridin]-6′-yl)hexahydropyrrolo[3,4-b][1,4]oxazine-6(2H)-carbonitrile] | 8.00 to 9.00
N#Cc1cccc(-c2ccc(N3CCO[C@@H]4CN(C#N)C[C@@H]43)nc2)n1 (racemic) [Example 27] | 7.00 to 8.00
N#CN1C[C@H]2OCCN(c3ccc(-c4ccccc4)nn3)[C@H]2C1 (relative stereo) [Example 2, cis-4-(6-Phenylpyridazin-3-yl)hexahydropyrrolo[3,4-b][1,4]oxazine-6(2H)-carbonitrile] | 6.00 to 7.00
N#CN1C[C@@H]2OCCN(c3nc4ccc(F)cc4s3)[C@@H]2C1 (relative stereo) [Example 3, cis-4-(6-Fluorobenzo[d]thiazol-2-yl)hexahydropyrrolo[3,4-b][1,4]oxazine-6(2H)-carbonitrile] | 5.00 to 6.00
N#CN1C[C@@H]2OCCN(c3cc(-c4ccccc4)ccn3)[C@@H]2C1 (relative stereo) [Example 4, cis-4-(4-Phenylpyridin-2-yl)hexahydropyrrolo[3,4-b][1,4]oxazine-6(2H)-carbonitrile] | 5.00 to 6.00
N#CN1C[C@@H]2OCCN(c3ccc(-c4ccccc4)cn3)[C@@H]2C1 (relative stereo) [Example 5, cis-4-(5-Phenylpyridin-2-yl)hexahydropyrrolo[3,4-b][1,4]oxazine-6(2H)-carbonitrile] | 6.00 to 7.00
N#CN1C[C@@H]2OCCN(c3cccc(-c4ccccc4)n3)[C@@H]2C1 (relative stereo) [Example 6, cis-4-(6-Phenylpyridin-2-yl)hexahydropyrrolo[3,4-b][1,4]oxazine-6(2H)-carbonitrile] | 6.00 to 7.00
N#CN1C[C@@H]2OCCN(c3nccc(-c4ccccc4)n3)[C@@H]2C1 (relative stereo) [Example 7, cis-4-(4-Phenylpyrimidin-2-yl)hexahydropyrrolo[3,4-b][1,4]oxazine-6(2H)-carbonitrile] | 6.00 to 7.00
N#CN1C[C@H]2CCN(c3ncc(-c4ccccc4)s3)[C@H]2C1 (relative stereo) [Example 8, cis-1-(5-Phenylthiazol-2-yl)hexahydropyrrolo[3,4-b]pyrrole-5(1H)-carbonitrile] | 6.00 to 7.00
N#CN1C[C@H]2OCCN(c3ncc(-c4ccccc4)s3)[C@H]2C1 (relative stereo) [Example 9, cis-4-(5-Phenylthiazol-2-yl)hexahydropyrrolo[3,4-b][1,4]oxazine-6(2H)-carbonitrile] | 6.00 to 7.00
N#CN1C[C@@H]2OCCN(c3ncc(-c4ccccc4)s3)[C@H]2C1 (relative stereo) [Example 10, trans-4-(5-Phenylthiazol-2-yl)hexahydropyrrolo[3,4-b][1,4]oxazine-6(2H)-carbonitrile] | 6.00 to 7.00
N#Cc1cc(-c2ccc(N3CCO[C@H]4CN(C#N)C[C@H]43)nc2)ccn1 (single isomer, unassigned) [Example 19, cis-4-(2′-Cyano-[3,4′-bipyridin]-6-yl)hexahydropyrrolo[3,4-b][1,4]oxazine-6(2H)-carbonitrile] | 8.00 to 9.00
N#Cc1cc(-c2ccc(N3CCO[C@H]4CN(C#N)C[C@H]43)nc2)ccn1 (single isomer, unassigned) [Example 20, cis-4-(2′-Cyano-[3,4′-bipyridin]-6-yl)hexahydropyrrolo[3,4-b][1,4]oxazine-6(2H)-carbonitrile] | 7.00 to 8.00
N#Cc1cc(-c2ccc(N3CCO[C@H]4CN(C#N)C[C@H]43)nn2)ccn1 (single isomer, unassigned) [Example 21, cis-4-(6-(2-Cyanopyridin-4-yl)pyridazin-3-yl)hexahydropyrrolo[3,4-b][1,4]oxazine-6(2H)-carbonitrile] | 6.00 to 7.00
N#Cc1cc(-c2ccc(N3CCO[C@H]4CN(C#N)C[C@H]43)nn2)ccn1 (single isomer, unassigned) [Example 22, cis-4-(6-(2-Cyanopyridin-4-yl)pyridazin-3-yl)hexahydropyrrolo[3,4-b][1,4]oxazine-6(2H)-carbonitrile] | 7.00 to 8.00
N#CN1CC2CCN(c3ccccc3)C2C1 (centres unmarked) [Example 1, 1-Phenylhexahydropyrrolo[3,4-b]pyrrole-5(1H)-carbonitrile] | 5.00 to 6.00
N#CN1CC2CCCN(c3ncc(-c4ccccc4)s3)C2C1 (centres unmarked) [Example 11, 1-(5-Phenylthiazol-2-yl)octahydro-6H-pyrrolo[3,4-b]pyridine-6-carbonitrile] | 5.00 to 6.00
CN(c1ncc(-c2ccccc2)s1)C1CCN(C#N)C1 (centres unmarked) [Example 13, 3-(Methyl(5-phenylthiazol-2-yl)amino)pyrrolidine-1-carbonitrile] | 5.00 to 6.00
CN(c1ccc(-c2ccccc2)cn1)C1CCN(C#N)C1 (centres unmarked) [Example 14, 3-(Methyl(5-phenylpyridin-2-yl)amino)pyrrolidine-1-carbonitrile] | 5.00 to 6.00
N#CN1C[C@H]2CCN(c3nc4ccc(OC(F)(F)F)cc4[nH]3)[C@H]2C1 [Example 15, (3aR,6aR)-1-(6-(Trifluoromethoxy)-1H-benzo[d]imidazol-2-yl)hexahydropyrrolo[3,4-b]pyrrole-5(1H)-carbonitrile] | 7.00 to 8.00
N#Cc1ccc2nc(N3CC[C@@H]4CN(C#N)C[C@@H]43)[nH]c2c1 [Example 16, 2-((3aR,6aR)-5-Cyanohexahydropyrrolo[3,4-b]pyrrol-1(2H)-yl)-1H-benzo[d]imidazole-6-carbonitrile] | 6.00 to 7.00
COc1ccc2nc(N3CC[C@@H]4CN(C#N)C[C@@H]43)[nH]c2c1 [Example 17, (3aR,6aR)-1-(6-Methoxy-1H-benzo[d]imidazol-2-yl)hexahydropyrrolo[3,4-b]pyrrole-5(1H)-carbonitrile] | 6.00 to 7.00
CN(c1nc2ccc(C(F)(F)F)cc2[nH]1)[C@@H]1CCN(C#N)C1 [Example 18, (R)-3-(Methyl(6-(trifluoromethyl)-1H-benzo[d]imidazol-2-yl)amino)pyrrolidine-1-carbonitrile] | 6.00 to 7.00
